In US9845327B2, “Treatment of proteinopathies” (THE GENERAL HOSPITAL CORPORATION, priority 2011, dated 2017):

Tests used:
[1] = tested on: human dopamine neurons generated from iPS cells; assay: Proteolysis by radioactive pulse-chase in human iPS dopamine neurons; format: cell-based; details: wild-type neurons; 100 μM IFG 5 days, 1 day wash-out
Experimental: (§1) In this Example, human dopamine neurons generated from iPS cells of an unaffected control were treated with a pharmacological chaperone activator of GCase polypeptide, isofagomine (IFG). […] Treatment of wild-type neurons with 100 μM IFG for 5 days followed by 1 day wash-out increased the levels of GCase polypeptide (FIGS. 15A and 15B). This increase was likely due to the fact that wild-type GCase polypeptide was occasionally misfolded in the ER and degraded (about 30% of the total made in the ER), and IFG appeared to also stabilize the wild-type misfolded forms.
In this Example, it was further determined if the effects discussed above could also be replicated with non-native site binding compounds that can act as allosteric activators of GCase polypeptide, and therefore unlike IFG, would not require a washout to activate GCase polypeptide. […]
Proteolysis of long-lived proteins was determined by radioactive pulse-chase using ^3H-leucine. […] Samples were centrifuged at 20,000×g for 20 min, 4° C., and the radioactivity was measured in 5 ml of scintillation cocktail using a Beckman LS 1701 liquid scintillation counter (Beckman Instruments). Precipitated protein pellets were extracted in 200 μl of Na deoxycholate, 0.1 M NaOH, and radioactivity was determined. Percent proteolysis was calculated as described in detail elsewhere (Kaushik et al. Methods Enzymol. 452: 297, 2009). […]

GCase polypeptide = molecular target: T1, GCase polypeptide (Homo sapiens, UniProt P04062); assay: GCase polypeptide levels and post-ER forms by western blot in human iPS dopamine neurons; format: cell-based; details: wild-type neurons from an unaffected control; 100 μM IFG for 5 days followed by 1 day wash-out
T1 construct: endogenous in cells; host or cells: human iPS-derived midbrain dopamine neurons (healthy control; PD patient with SNCA triplication, Coriell ND27760)
T1 sequence (P04062 40-536): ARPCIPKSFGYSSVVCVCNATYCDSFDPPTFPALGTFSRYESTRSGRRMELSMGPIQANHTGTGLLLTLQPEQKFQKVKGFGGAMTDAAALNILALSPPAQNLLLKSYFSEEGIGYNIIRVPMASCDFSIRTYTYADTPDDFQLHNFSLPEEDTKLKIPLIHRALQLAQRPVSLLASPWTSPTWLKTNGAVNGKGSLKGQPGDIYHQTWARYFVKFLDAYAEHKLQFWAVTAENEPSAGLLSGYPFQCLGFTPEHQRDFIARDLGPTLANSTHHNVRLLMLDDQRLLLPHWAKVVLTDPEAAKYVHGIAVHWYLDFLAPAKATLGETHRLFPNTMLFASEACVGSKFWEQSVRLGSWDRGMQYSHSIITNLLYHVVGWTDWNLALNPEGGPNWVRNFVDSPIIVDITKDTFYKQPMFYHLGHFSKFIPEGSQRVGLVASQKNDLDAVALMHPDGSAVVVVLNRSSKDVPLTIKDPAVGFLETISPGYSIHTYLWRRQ
Experimental: as §1
It was also shown in this Example that treatment with the GCase polypeptide activator increased the levels of total GCase protein and increased the post-ER forms, indicating enhancement of flux to the lysosome (FIG. 19B).
In this Example, the effect of combining the GCase polypeptide pharmacological chaperone IFG with the antioxidant n-acetyl-cysteine (NAC) on GCase polypeptide maturation in PD iPS neurons was tested. Neurons were treated with either IFG, NAC, or IFG and NAC together, and GCase polypeptide maturation was analyzed by western blot.
Most materials for SDS-PAGE were obtained from Invitrogen (NuPAGE system). Protein lysates were boiled in sample buffer (20 mM Tris, 1% (v/v) glycerol, 180 mM β-mercaptoethanol, 0.003% (w/v) bromophenol blue, 2% (w/v) SDS, pH 6.8), resolved on 4%-12% Bis-Tris polyacrylamide precast gels in a MOPS-SDS running buffer, or 4%-12% Tris-Glycine gels. 10% Tris-Glycine gels were utilized for some GCase polypeptide western blot's (FIGS. 13B, 13D, and 13E, and FIGS. 14C and 14F). […] Blots were blocked in Odyssey blocking buffer (Li-Cor biosciences) containing 0.05% Tween, or 5% non-fat dry milk in TBS-T 0.2%, followed by incubation with primary antibodies (see above for dilutions), and detected with anti-mouse or -rabbit IgG conjugated to IRDye 680 or 800 (1:10,000, Li-Cor biosciences). […] Any nonspecific bands detected were not included in densitometric analyses. […]

levels of GCase polypeptide (GCase polypeptide): increased
SMILES: OC[C@H]1CNC[C@@H](O)[C@@H]1O [IFG, isofagomine]
Proteolysis rate, fold increase compared to controls [1]: 3 fold
